# In patent US8952024B2, “Herbicidal pyrimidone derivatives” (E I du Pont de Nemours and Company, priority 2009, dated 2015):
# Columns and labels:
# Test in all cases: Test B pre-/postemergence plant response
# Format in all cases: in vivo
# [1] = system: Surinam grass (Brachiaria decumbens)
# From the text: (§1) Seeds of plant species selected from blackgrass (Alopecurus myosuroides), downy bromegrass (Bromus tectorum), green foxtail (Setaria viridis), Italian ryegrass (Lolium multiflorum), wheat (Triticum aestivum), wild oat (Avena fatua), deadnettle (henbit deadnettle, Lamium amplexicaule), galium (catchweed bedstraw, Galium aparine), bermudagrass (Cynodon dactylon), Surinam grass (Brachiaria decumbens), cocklebur (Xanthium strumarium), corn (Zea mays), large crabgrass (Digitaria sanguinalis), woolly cupgrass (Eriochloa villosa), giant foxtail (Setaria faberii), goosegrass (Eleusine indica), johnsongrass (Sorghum halepense), kochia (Kochia scoparia), lambsquarters (Chenopodium album), morningglory (Ipomoea coccinea), nightshade (eastern black nightshade, Solanum ptycanthum), yellow nutsedge (Cyperus esculentus), pigweed (Amaranthus retroflexus), ragweed (common ragweed, Ambrosia elatior), Russian thistle (Salsola kali), soybean (Glycine max), sunflower (common oilseed sunflower, Helianthus annuus) and velvetleaf (Abutilon theophrasti) were planted into a blend of loam soil and sand and treated preemergence with test compounds formulated in a non-phytotoxic solvent mixture which included a surfactant.
# (§2) At the same time, plants selected from these crop and weed species and also winter barley (Hordeum vulgare), canarygrass (Phalaris minor), chickweed (Stellaria media) and windgrass (Apera spica-venti) were planted in pots containing Redi-Earth® planting medium (Scotts Company, 14111 Scottslawn Road, Marysville, Ohio 43041) comprising spaghnum peat moss, vermiculite, wetting agent and starter nutrients and treated with postemergence applications of some of the test chemicals formulated in the same manner. Plants ranged in height from 2 to 18 cm (1- to 4-leaf stage) for postemergence treatments.
# (§3) Treated plants and controls were maintained in a greenhouse for 13 to 15 days, after which time all treated plants were visually evaluated and compared to controls. Plant response ratings, summarized in Table B, are based on a scale of 0 to 100 where 0 is no effect and 100 is complete control. A dash (-) response means no test result.
# [2] = system: blackgrass (Alopecurus myosuroides)
# From the text: as §1, §2, §3
# [3] = system: cocklebur (Xanthium strumarium)
# From the text: as §1, §2, §3
# [4] = system: corn (Zea mays)
# From the text: as §1, §2, §3
# [5] = system: downy bromegrass (Bromus tectorum)
# From the text: as §1, §2, §3
# [6] = system: giant foxtail (Setaria faberii)
# From the text: as §1, §2, §3
# [7] = system: goosegrass (Eleusine indica)
# From the text: as §1, §2, §3
# [8] = system: green foxtail (Setaria viridis)
# From the text: as §1, §2, §3
# [9] = system: johnsongrass (Sorghum halepense)
# From the text: as §1, §2, §3
# [10] = 250 g ai/ha, Preemergence, 0 to 100 scale
# [11] = Postemergence, 31 g ai/ha, scale 0 to 100 (0 no effect, 100 complete control)
# [12] = Postemergence, 62 g ai/ha, scale 0 (no effect) to 100 (complete control), 13 to 15 days
# [13] = Postemergence, 125 g ai/ha, visual rating after 13 to 15 days, scale 0 (no effect) to 100 (complete control)
# [14] = Postemergence, 250 g ai/ha, scale 0 to 100
# [15] = Preemergence, 31 g ai/ha, scale 0 to 100 (0 no effect, 100 complete control)
# [16] = Preemergence, 62 g ai/ha, scale 0 to 100, 0 no effect, 100 complete control
# [17] = Preemergence, 125 g ai/ha, 0 to 100 scale
substance,measurement,setting,value
5-[(2-hydroxy-6-oxo-1-cyclohexen-1-yl)carbonyl]-3-phenyl-2-(3-pyridinyl)-4(3H)-pyrimidone [Compound 113],"Plant response rating, Surinam Grass",[1]; [10],10
same,"Plant response rating, Surinam Grass",[1]; [11],0
same,"Plant response rating, Surinam Grass",[1]; [12],10
same,"Plant response rating, Surinam Grass",[1]; [13],20
same,Surinam Grass plant response rating,[1]; [14],25
same,"Plant response rating, Surinam Grass",[1]; [15],0
same,"Plant response rating, Surinam Grass",[1]; [16],0
same,Surinam Grass plant response rating,[1]; [17],0
same,"Plant response rating, Blackgrass",[2]; [10],0
same,"Plant response rating, Blackgrass",[2]; [11],0
same,"Plant response rating, Blackgrass",[2]; [12],0
same,"Plant response rating, Blackgrass",[2]; [13],0
same,Blackgrass plant response rating,[2]; [14],5
same,"Plant response rating, Blackgrass",[2]; [15],0
same,"Plant response rating, Blackgrass",[2]; [16],0
same,Blackgrass plant response rating,[2]; [17],0
same,"Plant response rating, Cocklebur",[3]; [10],75
same,"Plant response rating, Cocklebur",[3]; [11],45
same,"Plant response rating, Cocklebur",[3]; [12],45
same,"Plant response rating, Cocklebur",[3]; [13],65
same,Cocklebur plant response rating,[3]; [14],70
same,"Plant response rating, Cocklebur",[3]; [15],0
same,"Plant response rating, Cocklebur",[3]; [16],0
same,Cocklebur plant response rating,[3]; [17],0
same,"Plant response rating, Corn",[4]; [10],0
same,"Plant response rating, Corn",[4]; [11],0
same,"Plant response rating, Corn",[4]; [12],0
same,"Plant response rating, Corn",[4]; [13],0
same,Corn plant response rating,[4]; [14],10
same,"Plant response rating, Corn",[4]; [15],0
same,"Plant response rating, Corn",[4]; [16],0
same,Corn plant response rating,[4]; [17],0
same,"Plant response rating, Bromegrass, Downy",[5]; [10],0
same,"Plant response rating, Bromegrass, Downy",[5]; [11],0
same,"Plant response rating, Bromegrass, Downy",[5]; [12],0
same,"Plant response rating, Bromegrass, Downy",[5]; [13],5
same,"Bromegrass, Downy plant response rating",[5]; [14],5
same,"Plant response rating, Bromegrass, Downy",[5]; [15],0
same,"Plant response rating, Bromegrass, Downy",[5]; [16],0
same,"Bromegrass, Downy plant response rating",[5]; [17],0
same,"Plant response rating, Foxtail, Giant",[6]; [10],25
same,"Plant response rating, Foxtail, Giant",[6]; [11],20
same,"Plant response rating, Foxtail, Giant",[6]; [12],55
same,"Plant response rating, Foxtail, Giant",[6]; [13],55
same,"Foxtail, Giant plant response rating",[6]; [14],60
same,"Plant response rating, Foxtail, Giant",[6]; [15],0
same,"Plant response rating, Foxtail, Giant",[6]; [16],0
same,"Foxtail, Giant plant response rating",[6]; [17],0
same,"Plant response rating, Goosegrass",[7]; [10],60
same,"Plant response rating, Goosegrass",[7]; [11],20
same,"Plant response rating, Goosegrass",[7]; [12],25
same,"Plant response rating, Goosegrass",[7]; [13],35
same,Goosegrass plant response rating,[7]; [14],35
same,"Plant response rating, Goosegrass",[7]; [15],10
same,Goosegrass plant response rating,[7]; [17],45
same,"Plant response rating, Foxtail, Green",[8]; [10],0
same,"Plant response rating, Foxtail, Green",[8]; [11],5
same,"Plant response rating, Foxtail, Green",[8]; [12],20
same,"Plant response rating, Foxtail, Green",[8]; [13],30
same,"Foxtail, Green plant response rating",[8]; [14],40
same,"Plant response rating, Foxtail, Green",[8]; [15],0
same,"Plant response rating, Foxtail, Green",[8]; [16],0
same,"Foxtail, Green plant response rating",[8]; [17],0
same,"Plant response rating, Johnsongrass",[9]; [10],0
same,"Plant response rating, Johnsongrass",[9]; [11],0
same,"Plant response rating, Johnsongrass",[9]; [12],0
same,"Plant response rating, Johnsongrass",[9]; [13],0
